Reference: US20120270884A1, “Methods of Treating Aneurysmal Dilatation, Blood Vessel Wall Weakness and Specifically Abdominal Aortic and Thoracic Aneurysm Using Matrix Metalloprotease-2 Inhibitors” (SYMPHONY EVOLUTION, INC., priority 2009, published 2012)

Legend:
[1] = target: TACE (TNF-alpha converting enzyme, ADAM-17) (Homo sapiens, UniProt P78536); experiment: In vitro metalloprotease inhibition, TACE; type: biochemical
Text: (§1) Blank cells indicate lack of data only.

[2] = target: T1, MMP-1 (Fibroblast collagenase) (Homo sapiens, UniProt P03956); experiment: In vitro metalloprotease inhibition, MMP-1; type: biochemical
T1 sequence (P03956 100-469): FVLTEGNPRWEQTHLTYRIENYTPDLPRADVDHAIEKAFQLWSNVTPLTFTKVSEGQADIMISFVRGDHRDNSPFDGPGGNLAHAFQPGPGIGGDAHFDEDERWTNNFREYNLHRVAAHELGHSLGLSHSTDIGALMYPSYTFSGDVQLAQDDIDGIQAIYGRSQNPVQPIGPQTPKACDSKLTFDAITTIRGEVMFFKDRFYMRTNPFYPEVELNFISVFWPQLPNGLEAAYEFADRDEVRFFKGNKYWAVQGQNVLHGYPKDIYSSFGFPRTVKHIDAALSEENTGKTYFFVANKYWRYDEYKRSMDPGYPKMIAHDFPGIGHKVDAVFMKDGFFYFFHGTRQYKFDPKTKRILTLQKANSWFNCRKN
Text: as §1

MMP-3 (Stromelysin-1) = MMP-3 (Stromelysin-1) (Homo sapiens, UniProt P08254); experiment: In vitro metalloprotease inhibition, MMP-3; type: biochemical
MMP-3 (Stromelysin-1), sequence (P08254 100-477, species assumed): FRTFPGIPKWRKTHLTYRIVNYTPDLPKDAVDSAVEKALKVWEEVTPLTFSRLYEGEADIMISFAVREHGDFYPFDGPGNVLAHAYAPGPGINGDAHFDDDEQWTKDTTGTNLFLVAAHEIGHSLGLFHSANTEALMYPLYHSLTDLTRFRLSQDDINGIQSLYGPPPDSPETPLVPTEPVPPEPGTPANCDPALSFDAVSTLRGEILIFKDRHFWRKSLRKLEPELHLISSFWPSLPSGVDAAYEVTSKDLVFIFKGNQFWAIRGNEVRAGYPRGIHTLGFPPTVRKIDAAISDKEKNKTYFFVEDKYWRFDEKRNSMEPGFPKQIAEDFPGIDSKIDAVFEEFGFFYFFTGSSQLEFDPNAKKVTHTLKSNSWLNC
Text: as §1

[3] = test system: abdominal aorta of C57/B16 mice after elastase perfusion; experiment: Elastase-perfusion mouse model of AAA; type: in vivo
Text: All mice used in the experiment were commercially obtained C57/B16 inbred strain mice. Throughout the experimental course, mice were allowed free access to food and water. Animals were housed in a controlled animal facility, and all mouse care and treatment occurred under approved protocols.
A total of 89 C57/B16 mice were subjected to transient perfusion of the abdominal aorta according to a protocol known in the art. Briefly, after sedation and preparation, the aorta was approached through a midline laparotomy. The infrarenal aorta was dissected and the diameter was measured under physiologic blood pressure. A segment of infrarenal aorta was isolated and a 5 minute perfusion of this segment was performed through an arteriotomy at 100 mmHg with a solution containing type I porcine pancreatic elastase (PPE 0.16 U/mL). All of the experiments were performed with a single PPE preparation derived from the same commercial source and lot.
Following aortic perfusion the arteriotomy was repaired, the laparotomy was closed and the animal was allowed to completely recover before returning to its standard housing.
Following aortic perfusion, animals were placed into one of 5 treatment groups. […] Three different doses of the agent were used, 50 mg/kg/day (n=17), 125 mg/kg/day (n=17), and 250 mg/kg/day (n=18). There were two mice in each group which died following aortic perfusion, and all others were available for analysis. Control animals (n=18) were similarly treated with daily gavage of the Cremophor diluent only. Of these mice, 16 survived the two weeks following aortic perfusion and underwent final aortic measurements and harvest. […] In this group, 4 mice died prior to the two week harvest, and all others were used in the analysis of aneurysm growth.
Two weeks following elastase perfusion, the mice were again anesthetized; the laparotomy incision was reopened and the final aortic diameter was measured in vivo prior to sacrifice. The animals were humanely sacrificed, and circulating blood and the entire perfused segment of aorta was harvested for RNA extraction, protein extraction or histology.
The aortas from several mice from each experimental group were perfusion fixed with 10% neutral-buffered formalin, removed, and placed in additional formalin for a minimum of 24 hours prior to processing for paraffin embedding. Following paraffin embedding, aortic specimens were cut into 5 μm sections and mounted on glass slides. Each specimen was stained with hematoxylin and eosin to evaluate inflammatory cell infiltration and Accustain® Elastic Stain kit to assess the degree of elastin degradation. Photomicrographs of serial sections were obtained using an Olympus BX60 light microscope equipped with CV12 video capture camera. […]

[4] = target: T2, MMP-2 (72 kDa gelatinase, gelatinase A) (Homo sapiens, UniProt P08253); experiment: In vitro metalloprotease inhibition, MMP-2; type: biochemical
T2 sequence (P08253 110-660): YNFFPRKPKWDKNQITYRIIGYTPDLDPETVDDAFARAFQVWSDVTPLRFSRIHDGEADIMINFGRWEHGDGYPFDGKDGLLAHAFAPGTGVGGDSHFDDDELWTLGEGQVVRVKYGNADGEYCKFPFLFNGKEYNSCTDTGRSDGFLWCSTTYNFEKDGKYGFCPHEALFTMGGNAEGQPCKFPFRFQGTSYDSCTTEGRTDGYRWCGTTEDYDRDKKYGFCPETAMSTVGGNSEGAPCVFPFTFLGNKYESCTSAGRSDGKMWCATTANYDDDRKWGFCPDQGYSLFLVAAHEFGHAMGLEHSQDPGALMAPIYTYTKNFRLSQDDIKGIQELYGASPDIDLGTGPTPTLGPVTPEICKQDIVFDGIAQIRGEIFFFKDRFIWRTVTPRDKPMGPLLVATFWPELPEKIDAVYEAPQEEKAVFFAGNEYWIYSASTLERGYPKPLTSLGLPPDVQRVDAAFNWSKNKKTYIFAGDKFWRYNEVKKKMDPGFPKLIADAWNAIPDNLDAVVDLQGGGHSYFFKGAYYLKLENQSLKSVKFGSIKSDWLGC

[5] = target: MMP-8 (Neutrophil collagenase) (Homo sapiens, UniProt P22894); experiment: In vitro metalloprotease inhibition, MMP-8; type: biochemical
MMP-8 (Neutrophil collagenase), sequence (P22894 101-467, species assumed): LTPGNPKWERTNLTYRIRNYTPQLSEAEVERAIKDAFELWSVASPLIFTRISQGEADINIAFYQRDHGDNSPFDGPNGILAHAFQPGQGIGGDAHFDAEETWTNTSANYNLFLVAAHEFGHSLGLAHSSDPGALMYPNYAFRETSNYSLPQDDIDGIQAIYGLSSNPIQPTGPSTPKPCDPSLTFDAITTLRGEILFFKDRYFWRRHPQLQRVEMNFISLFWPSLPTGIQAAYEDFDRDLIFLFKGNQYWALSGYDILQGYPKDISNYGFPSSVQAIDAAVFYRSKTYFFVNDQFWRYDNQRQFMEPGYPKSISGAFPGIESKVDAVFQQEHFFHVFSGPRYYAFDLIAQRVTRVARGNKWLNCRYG

[6] = target: MMP-9 (92 kDa gelatinase, gelatinase B) (Homo sapiens, UniProt P14780); experiment: In vitro metalloprotease inhibition, MMP-9; type: biochemical
MMP-9 (92 kDa gelatinase, gelatinase B), sequence (P14780 94-707, species assumed): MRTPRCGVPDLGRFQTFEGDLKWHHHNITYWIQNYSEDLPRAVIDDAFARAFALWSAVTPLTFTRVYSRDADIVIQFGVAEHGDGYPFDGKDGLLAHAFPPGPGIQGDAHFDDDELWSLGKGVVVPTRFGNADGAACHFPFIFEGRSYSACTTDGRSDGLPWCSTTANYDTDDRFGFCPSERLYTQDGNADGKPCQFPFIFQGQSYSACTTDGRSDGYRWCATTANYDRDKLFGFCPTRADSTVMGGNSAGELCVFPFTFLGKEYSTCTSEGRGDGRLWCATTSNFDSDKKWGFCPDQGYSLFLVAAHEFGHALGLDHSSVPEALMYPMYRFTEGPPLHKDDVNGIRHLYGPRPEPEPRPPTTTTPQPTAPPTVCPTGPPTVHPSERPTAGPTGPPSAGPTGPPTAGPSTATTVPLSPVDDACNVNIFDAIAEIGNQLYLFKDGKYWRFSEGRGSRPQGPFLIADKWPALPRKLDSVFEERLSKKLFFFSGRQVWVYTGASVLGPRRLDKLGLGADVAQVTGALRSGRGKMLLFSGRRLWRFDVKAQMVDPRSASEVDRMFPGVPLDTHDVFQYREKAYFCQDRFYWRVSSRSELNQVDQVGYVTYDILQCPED

MMP-13 (collagenase-3) = MMP-13 (collagenase-3) (Homo sapiens, UniProt P45452); experiment: In vitro metalloprotease inhibition, MMP-13; type: biochemical
ADAM-10 = target: T3, ADAM-10 (UniProt O14672); experiment: ADAM-10 enzyme assay, cleavage of fluorogenic 10-residue peptide; conditions: read-out: IC50 ADAM-10; in vitro
T3 sequence (O14672 1-748): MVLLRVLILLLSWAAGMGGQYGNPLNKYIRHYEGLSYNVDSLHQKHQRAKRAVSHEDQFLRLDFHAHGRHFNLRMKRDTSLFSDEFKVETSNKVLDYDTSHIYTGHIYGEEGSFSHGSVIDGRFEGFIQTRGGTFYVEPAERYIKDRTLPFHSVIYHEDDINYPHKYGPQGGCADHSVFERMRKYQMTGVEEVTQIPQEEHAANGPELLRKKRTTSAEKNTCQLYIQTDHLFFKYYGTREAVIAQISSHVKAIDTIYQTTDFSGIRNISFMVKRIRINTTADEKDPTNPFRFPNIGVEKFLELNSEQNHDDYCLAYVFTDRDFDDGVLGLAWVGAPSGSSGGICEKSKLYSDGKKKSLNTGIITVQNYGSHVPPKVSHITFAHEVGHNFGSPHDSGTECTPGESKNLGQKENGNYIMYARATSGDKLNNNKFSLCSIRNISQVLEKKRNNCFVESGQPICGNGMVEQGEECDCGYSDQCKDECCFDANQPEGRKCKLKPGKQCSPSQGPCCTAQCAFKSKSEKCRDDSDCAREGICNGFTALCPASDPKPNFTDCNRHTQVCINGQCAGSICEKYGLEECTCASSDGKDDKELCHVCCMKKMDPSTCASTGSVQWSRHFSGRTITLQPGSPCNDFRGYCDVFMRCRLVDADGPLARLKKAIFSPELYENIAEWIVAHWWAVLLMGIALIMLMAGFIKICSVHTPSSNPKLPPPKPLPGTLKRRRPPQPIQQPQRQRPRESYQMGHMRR
Protocol: mADAM-10 or hADAM-10 activity was measured as the ability to cleave a 10-residue peptide (DABCYL-Leu-Leu-Ala-Gln-Lys-*-Leu-Arg-Ser-Ser-Arg-EDANS). […] Enzyme was diluted to a final active concentration of 5 nM in Buffer A (50 mM HEPES 8.0, 100 mM NaCl, 1 mM CaCl2 and 0.01% NP-40). Serial dilutions for compounds were performed ranging from 100 μM to 0.5 nM using a Beckman Biomek 2000 in polypropylene plates (Greiner). 20 μl of enzyme solution was added to 10 μl of compound in buffer A, and allowed to incubate for 15 min in 384 well black, Greiner, microtiter plates (#781076). 20 μl of substrate (12.5 μM in Buffer A) was then added, resulting in final reaction conditions of 2 nM ADAM-10, 5 μM substrate, and compound concentrations ranging from 20 uM to 0.1 nM. The reaction was incubated for 2 hr at RT, and fluorescence was measured at Ex355, Em460 on a Wallac Victor 2 fluorescence reader. […] This reaction was incubated for 16 hr at RT and fluorescence was read using identical conditions.

TACE (TNF-alpha converting enzyme, ADAM-17), sequence (P78536 215-824): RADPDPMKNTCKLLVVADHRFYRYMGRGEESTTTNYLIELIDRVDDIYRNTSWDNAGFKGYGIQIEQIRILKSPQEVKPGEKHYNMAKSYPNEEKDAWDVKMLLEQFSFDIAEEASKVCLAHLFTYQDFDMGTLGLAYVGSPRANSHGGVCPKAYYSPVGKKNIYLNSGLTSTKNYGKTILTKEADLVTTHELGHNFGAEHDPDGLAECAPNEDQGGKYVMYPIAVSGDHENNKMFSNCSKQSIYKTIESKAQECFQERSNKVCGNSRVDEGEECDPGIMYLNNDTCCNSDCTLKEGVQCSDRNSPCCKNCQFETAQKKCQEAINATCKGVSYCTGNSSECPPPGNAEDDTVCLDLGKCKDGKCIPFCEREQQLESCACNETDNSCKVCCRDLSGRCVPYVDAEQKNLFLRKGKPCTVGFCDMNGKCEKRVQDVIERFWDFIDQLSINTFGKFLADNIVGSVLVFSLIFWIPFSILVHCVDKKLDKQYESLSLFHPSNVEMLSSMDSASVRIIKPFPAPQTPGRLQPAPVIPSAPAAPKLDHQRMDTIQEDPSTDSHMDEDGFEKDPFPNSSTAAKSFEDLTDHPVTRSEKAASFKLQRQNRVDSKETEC

IC50 [1] | IC50 [2] | IC50 (MMP-3 (Stromelysin-1)) | IC50 [4] | IC50 [5] | IC50 [6] | IC50 (MMP-13 (collagenase-3)) | IC50 (ADAM-10) | Structure (SMILES) | animals which did not develop aneurysms (% ΔAD not greater than 100%) ([3]; mice, 250 mg/kg/day daily gavage, 2 weeks, not statistically different than controls) | aortic histology: degree of elastin damage and inflammatory cell inflammation ([3]; mice, 50, 125, 250 mg/kg/day daily gavage, aorta at harvest, H&E and VVG stain) | aortic diameters at harvest versus control animals ([3]; mice, all doses (50, 125, 250 mg/kg/day), 2 weeks) | maximal diameters (% ΔAD) of all animals ([3]; mice, low and intermediate dose groups (50 and 125 mg/kg/day), 2 weeks)
50 to 1000 nM | 1000 to 20000 nM | 50 to 1000 nM | – | – | – | – | – | COCCOC(=O)N1CCN(S(=O)(=O)c2cc(F)c(Oc3ccc(Cl)cc3)c(F)c2)[C@@H](C(=O)NO)C1 [Entry 15] | 12% | inversely correlated with the dose of the agent administered | significantly smaller than control animals | greater than 100%
50 to 1000 nM | 1000 to 20000 nM | 50 to 1000 nM | < 50 nM | < 50 nM | 50 to 1000 nM | < 50 nM | – | O=C(NO)[C@H]1CN(C(=O)N2CCOCC2)CCN1S(=O)(=O)c1cc(F)c(Oc2ccc(Cl)cc2)c(F)c1 [Entry 30] | – | – | – | –
– | 1000 to 20000 nM | < 50 nM | < 50 nM | – | – | < 50 nM | < 50 nM | O=C(NO)[C@H]1CN(C(=O)c2cc(F)c(O)c(F)c2)CCN1S(=O)(=O)c1cc(F)c(Oc2ccc(Cl)cc2)c(F)c1 [Entry 41] | – | – | – | –
